Assay results published in patent publication US20040185016A1, “Compositions for treatment of hyperpigmentation and methods for making and using such compositions” (priority 2002, published 2004).
Where two headings read alike, the source gives them in different places. Each block holds one compound with its values, some of them ahead of it.

Assays:
[1] = in composition of Example 1; 30 and 90 days
Description: The composition of Example 1 was subjected to a range of temperatures over a period of time from 30 to 90 days to determine the chemical stability of selected ingredients. […] “FT” refers to freeze thaw conditions (−10° to −20° C.) where the product is exposed to freezing conditions for two days and then allowed to that at controlled room temperature (15° to 30° C.) for the next five days.

[2] = 0 days
Description: (§1) The composition of Example 3 was subjected to a range of temperatures over a prolonged period of time to determine the chemical stability of selected ingredients.
(§2) Next, chemical stability of avobenzone was determined using a suitable HPLC assay.
(§3) Next, the chemical stability of octyl methoxycinnamate was determined using a suitable HPLC assay.
(§4) Next, the chemical stability of the oxybenzone sunscreen was determined for 30 and 60 days at 6° C., 25° C., 30° C., and 40° C. using a suitable HPLC assay.
(§5) Next, the chemical stability of the oxybenzone sunscreen at 90 days was determined using a suitable HPLC assay.

[3] = chemical stability of selected ingredients in the composition of Example 3 (HPLC assay); conditions: in composition of Example 3
Description: as §1, §2, §3, §4, §5

ingredient activity after exposure of the formulation to high and low temperatures [1]: remains active | ingredient content, chemical stability by HPLC [2]: 3.95 % W/W | ingredient activity after exposure of the formulation to high and low temperatures ([3]; 30 to 90 days): remained active
SMILES: Oc1ccc(O)cc1 [hydroquinone]

ingredient activity after exposure of the formulation to high and low temperatures ([3]; 30 to 60 days): remained active | ingredient activity after exposure of the formulation to high and low temperatures ([3]; 30 to 90 days): remained active | ingredient content, chemical stability by HPLC ([3]; 30 days, 25°): 5.98 % W/W | ingredient content, chemical stability by HPLC ([3]; 30 days, 30°): 5.95 % W/W | ingredient content, chemical stability by HPLC ([3]; 30 days, 40°): 6.04 % W/W | ingredient content, chemical stability by HPLC ([3]; 60 days, 25°): 6.04 % W/W | ingredient content, chemical stability by HPLC ([3]; 60 days, 30°): 6.02 % W/W | ingredient content, chemical stability by HPLC ([3]; 60 days, 40°): 6.07 % W/W | ingredient content, chemical stability by HPLC ([3]; 90 days, 6°): 6.05 % W/W | ingredient content, chemical stability by HPLC ([3]; 90 days, 25°): 6.09 % W/W | ingredient content, chemical stability by HPLC ([3]; 90 days, 30°): 6.07 % W/W | ingredient content, chemical stability by HPLC ([3]; 90 days, 40°): 6.06 % W/W | ingredient content, chemical stability by HPLC ([3]; 90 days, FT (freeze thaw)): 6.09 % W/W | ingredient content, chemical stability by HPLC ([3]; day 0, 25°): 6.07 % W/W
SMILES: COc1ccc(C(=O)c2ccccc2)c(O)c1 [oxybenzone]

ingredient activity after exposure of the formulation to high and low temperatures [1]: remained active | ingredient content, chemical stability by HPLC [2]: 3.03 % W/W | ingredient activity after exposure of the formulation to high and low temperatures ([3]; 30 to 90 days): remained active
SMILES: COc1ccc(C(=O)CC(=O)c2ccc(C(C)(C)C)cc2)cc1 [avobenzone]

ingredient content, chemical stability by HPLC [2]: 7.61 % W/W
SMILES: CCCCC(CC)COC(=O)C=Cc1ccc(OC)cc1 (stereo not drawn) [octyl methoxycinnamate]
